Molecules are shown by their SMILES.

For this test, the target named is T1, RORγt (Homo sapiens, UniProt P51449).
T1 construct: purchased reporter-cell kit
T1 sequence (P51449 269-508 limits assumed): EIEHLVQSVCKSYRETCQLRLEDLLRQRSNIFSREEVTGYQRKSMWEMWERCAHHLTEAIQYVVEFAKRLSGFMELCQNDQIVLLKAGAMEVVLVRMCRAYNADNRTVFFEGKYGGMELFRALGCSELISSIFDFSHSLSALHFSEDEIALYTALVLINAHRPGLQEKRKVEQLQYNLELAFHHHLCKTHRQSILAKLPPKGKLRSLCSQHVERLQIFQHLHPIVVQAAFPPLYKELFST
The test is described as follows: Gal4 ligand binding assay (RORγt Gal fusion reporter assay). Particulars: inverse agonists, luciferase reporter, 24h. It is filed as cell-based. On the procedure: Compounds of the present invention were tested in a human RORγ ligand binding assay using a commercially available cell based ligand binding reporter assay in 96-well format (Cat #IB04001, INDIGO Biosciences, State College, Pa.). The N-terminal DNA binding domains (DBD) of the native RORγ and RORγt receptors have been substituted with that of the yeast GAL4-DBD and stably transfected in […] cells that also stably express luciferase under the regulation by upstream activation sequence of yeast Gal4. These cells constitutively express high level RORγ activity due to binding of endogenous co-factors. Both agonist and inverse agonist activity can be detected. The assay was performed according to kit manufacturer's instructions as follows. 10 mM compound stocks were diluted serially 1:3 with DMSO and further diluted with provided media to generate 10 titration points from 60 μM to 3 nM. These treatment conditions were added to the plates as 2× media in 100 μL volume. Each plate includes a positive control with 10 titration points as well as 6negative control wells with vehicle only, with final DMSO concentration of 0.2%. RORγ reporter cells were rapidly thawed and added to the plates in 100 μL volume. The plates were incubated for 24h in a 37° C. humidified 5% CO2incubator. Media was removed before the addition of room temperature luciferous detection substrate. After 5 minute incubation, relative light units (RLUs) were quantified using a plate reading luminometer. Data was normalized to positive control wells with only […]. Before establishing internal controls, ursolic acid was used as control.
Take `CCc1nc(CN2CC3CCC(C2)N3S(C)(=O)=O)ccc1-c1ccc(C(O)(C(F)(F)F)C(F)(F)F)cc1C` [Example 5, 2-(4-(2-ethyl-6-((8-(methylsulfonyl)-3,8-diazabicyclo[3.2.1]octan-3-yl)methyl)pyridin-3-yl)-3-methylphenyl)-1,1,1,3,3,3-hexafluoropropan-2-ol]: the IC50 was more than 250 nM.
The result for `Cc1cc(CN2CC3CCC(C2)N3C(=O)Cc2c(F)cccc2F)ccc1-c1ccc(C(O)(C(F)(F)F)C(F)(F)F)cc1` [Example 74, 2-(2,6-difluorophenyl)-1-(3-((4′-(1,1,1,3,3,3-hexafluoro-2-hydroxypropan-2-yl)-2-methyl-[1,1′-biphenyl]-4-yl)methyl)-3,8-diazabicyclo[3.2.1]octan-8-yl)ethan-1-one] reads more than 250 nM; that for `OC(c1ccc(-c2ccc(CN3CC4CCC(C3)N4Cc3ccncc3)cc2Cl)cc1)(C(F)(F)F)C(F)(F)F` [Example 56, 2-(2′-chloro-4′-((8-(pyridin-4-ylmethyl)-3,8-diazabicyclo[3.2.1]octan-3-yl)methyl)-[1,1′-biphenyl]-4-yl)-1,1,1,3,3,3-hexafluoropropan-2-ol], less than 50 nM.
Next, `CS(=O)(=O)N1C2CCC1CN(Cc1ccc(-c3ccc(C(O)(C(F)(F)F)C(F)(F)F)cc3)c(F)c1)C2` [Example 61, 1,1,1,3,3,3-hexafluoro-2-(2′-fluoro-4′-((8-(methylsulfonyl)-3,8-diazabicyclo[3.2.1]octan-3-yl)methyl)-[1,1′-biphenyl]-4-yl)propan-2-ol]: more than 250 nM; `CC(C)c1cc(CN2CC3CCC(C2)N3S(C)(=O)=O)ccc1-c1ccc(C(O)(C(F)(F)F)C(F)(F)F)cc1F` [Example 21]: 50 to 250 nM; `CCc1c(F)c(CN2CC3CCC(C2)N3S(C)(=O)=O)cc(F)c1-c1ccc(C(O)(C(F)(F)F)C(F)(F)F)cc1C` [Example 30, 2-(2′-ethyl-3′,6′-difluoro-2-methyl-4′-((8-(methylsulfonyl)-3,8-diazabicyclo[3.2.1]octan-3-yl)methyl)-[1,1′-biphenyl]-4-yl)-1,1,1,3,3,3-hexafluoropropan-2-ol]: less than 50 nM.
The compound `CCc1cc(CN2CC3CCC(C2)N3S(C)(=O)=O)ccc1-c1ccc(C(O)(C(F)(F)F)C(F)(F)F)cc1C(N)=O` [Example 31, 2′-ethyl-4-(1,1,1,3,3,3-hexafluoro-2-hydroxypropan-2-yl)-4′-((8-(methylsulfonyl)-3,8-diazabicyclo[3.2.1]octan-3-yl)methyl)-[1,1′-biphenyl]-2-carboxamide] showed an IC50 of more than 250 nM.
The result for `Cc1cc(CN2CC3CCC(C2)N3c2noc(C(C)(C)C)n2)ccc1-c1ccc(C(O)(C(F)(F)F)C(F)(F)F)cc1` [Example 36, 2-(4′-((8-(5-(tert-butyl)-1,2,4-oxadiazol-3-yl)-3,8-diazabicyclo[3.2.1]octan-3-yl)methyl)-2′-methyl-[1,1′-biphenyl]-4-yl)-1,1,1,3,3,3-hexafluoropropan-2-ol] reads more than 250 nM; that for `CC(C)c1cc(CN2CC3CCC(C2)N3S(C)(=O)=O)c(F)cc1-c1ccc(C(O)(C(F)(F)F)C(F)(F)F)cc1Cl` [Example 15, 2-(2-chloro-5′-fluoro-2′-isopropyl-4′-((8-(methylsulfonyl)-3,8-diazabicyclo[3.2.1]octan-3-yl)methyl)-[1,1′-biphenyl]-4-yl)-1,1,1,3,3,3-hexafluoropropan-2-ol], less than 50 nM; that for `CCc1cc(CN2CC3CCC(C2)N3S(C)(=O)=O)ncc1-c1ccc(C(O)(C(F)(F)F)C(F)(F)F)cc1Cl` [Example 4, 2-(3-chloro-4-(4-ethyl-6-((8-(methylsulfonyl)-3,8-diazabicyclo[3.2.1]octan-3-yl)methyl)pyridin-3-yl)phenyl)-1,1,1,3,3,3-hexafluoropropan-2-ol], 50 to 250 nM.
The result for `Cc1cc(CN2CC3CCC(C2)N3S(=O)(=O)CC(F)(F)F)ccc1-c1ccc(C(O)(C(F)(F)F)C(F)(F)F)cc1` [Example 67, 1,1,1,3,3,3-hexafluoro-2-(2′-methyl-4′-((8-((2,2,2-trifluoroethyl)sulfonyl)-3,8-diazabicyclo[3.2.1]octan-3-yl)methyl)-[1,1′-biphenyl]-4-yl)propan-2-ol] reads more than 250 nM; that for `CCc1cc(CN2CC3CCC(C2)N3S(C)(=O)=O)c(F)c(F)c1-c1ccc(C(O)(C(F)(F)F)C(F)(F)F)cc1C` [Example 29, 2-(6′-ethyl-2′,3′-difluoro-2-methyl-4′-((8-(methylsulfonyl)-3,8-diazabicyclo[3.2.1]octan-3-yl)methyl)-[1,1′-biphenyl]-4-yl)-1,1,1,3,3,3-hexafluoropropan-2-ol], less than 50 nM.
Next, `CS(=O)(=O)N1C2CCC1CN(Cc1ccc(-c3ccc(C(O)(C(F)(F)F)C(F)(F)F)cc3)c(C(F)(F)F)c1)C2` [Example 57, 1,1,1,3,3,3-hexafluoro-2-(4′-((8-(methylsulfonyl)-3,8-diazabicyclo[3.2.1]octan-3-yl)methyl)-2′-(trifluoromethyl)-[1,1′-biphenyl]-4-yl)propan-2-ol]: 50 to 250 nM; `Cc1cc(C(O)(C(F)(F)F)C(F)(F)F)ccc1-c1ccc(CN2CC3CCC(C2)N3S(C)(=O)=O)cc1C(C)C` [Example 35, 1,1,1,3,3,3-hexafluoro-2-(2′-isopropyl-2-methyl-4′-((8-(methylsulfonyl)-3,8-diazabicyclo[3.2.1]octan-3-yl)methyl)-[1,1′-biphenyl]-4-yl)propan-2-ol]: 50 to 250 nM; `OC(c1ccc(-c2ccc(CN3CC4CCC(C3)N4Cc3ccncc3)cc2C(F)(F)F)cc1)(C(F)(F)F)C(F)(F)F` [Example 58, 1,1,1,3,3,3-hexafluoro-2-(4′-((8-(pyridin-4-ylmethyl)-3,8-diazabicyclo[3.2.1]octan-3-yl)methyl)-2′-(trifluoromethyl)-[1,1′-biphenyl]-4-yl)propan-2-ol]: less than 50 nM.
`CCN1C2CCC1CN(Cc1ccc(-c3ccc(C(O)(C(F)(F)F)C(F)(F)F)cc3)c(C)c1)C2` [Example 42, 2-(4′-((8-ethyl-3,8-diazabicyclo[3.2.1]octan-3-yl)methyl)-2′-methyl-[1,1′-biphenyl]-4-yl)-1,1,1,3,3,3-hexafluoropropan-2-ol] yielded an IC50 of more than 250 nM.
`COCCC(=O)N1C2CCC1CN(Cc1ccc(-c3ccc(C(O)(C(F)(F)F)C(F)(F)F)cc3)c(C)c1)C2` [Example 45, 1-(3-((4′-(1,1,1,3,3,3-hexafluoro-2-hydroxypropan-2-yl)-2-methyl-[1,1′-biphenyl]-4-yl)methyl)-3,8-diazabicyclo[3.2.1]octan-8-yl)-3-methoxypropan-1-one] registered an IC50 of more than 250 nM.
As for `CCc1c(-c2ccc(C(O)(C(F)(F)F)C(F)(F)F)cc2)cc(F)c(CN2CC3CCC(C2)N3S(C)(=O)=O)c1F` [Example 14], the IC50 was less than 50 nM.
`Cc1cc(CN2CC3CCC(C2)N3Cc2ccncc2F)ccc1-c1ccc(C(O)(C(F)(F)F)C(F)(F)F)cc1` [Example 63, 1,1,1,3,3,3-hexafluoro-2-(4′-((8-((3-fluoropyridin-4-yl)methyl)-3,8-diazabicyclo[3.2.1]octan-3-yl)methyl)-2′-methyl-[1,1′-biphenyl]-4-yl)propan-2-ol] displayed an IC50 of 50 to 250 nM.
With `CCc1cc(CN2CC3CCC(C2)N3S(C)(=O)=O)ccc1-c1ccc(C(O)(C(F)(F)F)C(F)(F)F)cn1` [Example 32, 2-(6-(2-ethyl-4-((8-(methylsulfonyl)-3,8-diazabicyclo[3.2.1]octan-3-yl)methyl)phenyl)pyridin-3-yl)-1,1,1,3,3,3-hexafluoropropan-2-ol], the IC50 lay within 50 to 250 nM.
`CCc1cc(CN2CC3CCC(C2)N3C(C)=O)ccc1-c1ccc(C(O)(C(F)(F)F)C(F)(F)F)cc1` [Example 39, 1-(3-((2-ethyl-4′-(1,1,1,3,3,3-hexafluoro-2-hydroxypropan-2-yl)-[1,1′-biphenyl]-4-yl)methyl)-3,8-diazabicyclo[3.2.1]octan-8-yl)ethan-1-one] showed an IC50 of less than 50 nM.
Next, `CCc1c(F)c(CN2CC3CCC(C2)N3S(C)(=O)=O)cc(F)c1-c1ccc(C(O)(C(F)(F)F)C(F)(F)F)cc1Cl` [Example 11, 2-(2-chloro-2′-ethyl-3′,6′-difluoro-4′-((8-(methylsulfonyl)-3,8-diazabicyclo[3.2.1]octan-3-yl)methyl)-[1,1′-biphenyl]-4-yl)-1,1,1,3,3,3-hexafluoropropan-2-ol]: less than 50 nM; `CCc1cc(CN2C3CCC2CN(S(C)(=O)=O)C3)ccc1-c1ccc(C(O)(C(F)(F)F)C(F)(F)F)cc1` [Example 6, 2-(2′-ethyl-4′-((3-(methylsulfonyl)-3,8-diazabicyclo[3.2.1]octan-8-yl)methyl)-[1,1′-biphenyl]-4-yl)-1,1,1,3,3,3-hexafluoropropan-2-ol]: 50 to 250 nM.
`CCc1cc(CN2CC3CCC(C2)N3Cc2ccncc2)ccc1-c1ccc(C(O)(C(F)(F)F)C(F)(F)F)cc1` [Example 53, 2-(2′-ethyl-4′-((8-(pyridin-4-ylmethyl)-3,8-diazabicyclo[3.2.1]octan-3-yl)methyl)-[1,1′-biphenyl]-4-yl)-1,1,1,3,3,3-hexafluoropropan-2-ol] had an IC50 of less than 50 nM.

(Values after patent publication US11230555B2, “Bicyclic RORγ modulators” (Escalier Biosciences B.V., priority 2018, dated 2022).)
